Test results from patent US12576060B2, “Water soluble 3-O-acetyl-11-keto-β-boswellic acid and metal ion compositions, process for their preparation and uses thereof” (LAILA NUTRA PRIVATE LIMITED, priority 2020, dated 2026).
Values joined by “and” are separate entries in the source; they are usually repeats but may differ in a detail not shown here. Identical values can stand only once.

Experiments:
pH of 1% solution = format: physicochemical
Method: (§1) These potassium or sodium salts of AKBA were evaluated for their solubility in water and determined their pH.

[1] = tested on: Leukotriene B4 (LTB4) production; assay: Assay for Leukotriene B4 (LTB4) inhibition in A23187-induced polymorphonuclear leukocytes (PMNs); format: cell-based; conditions: human PMNs, 10 μM A23187 induction
Method: Human blood was collected from healthy volunteers from a peripheral vein in the presence of 2 mM EDTA. Plasma was separated by centrifugation at 1000 rpm for 10 minutes, and the residual cell pellet was resuspended in RPMI medium supplemented with 10% FBS and 2 mM EDTA. Thirty milliliters of blood cell suspension was carefully overlayed onto 15 mL of Ficoll/Lymphoprep in a 50 mL falcon tube in the dark, and the tube was centrifuged at 350×g for 30 minutes without using the brake. After removing the peripheral blood mononuclear cells (PBMC) and Ficoll/Lymphoprep, the settled red blood cell (RBC) layer containing granulocytes was treated with ACK lysis buffer (Gibco Cat #A10492-01) to lyse the RBC. After centrifugation at 1200 rpm for 10 minutes, the resulting cell pellet of polymorphonuclear leukocytes (PMNs) was resuspended in RPMI containing 1% newborn calf serum (NBCS). These cells were seeded in a 96-well plate at a density of 50,000 cells/well and treated with different concentrations of the test samples. Cells with 0.2% DMSO served as vehicle control. The plate was incubated in a CO2 incubator at 37° C. for 2 hrs. Finally, the cells treated with test samples were induced with 10 μM A23187 for 10 minutes at 37° C. in a CO2 incubator. The cells treated with only A23187 served as induction control. The plate was centrifuged at 1200 rpm for 5 minutes, and 120 μL cell-free supernatants were collected. Quantitation of LTB4 was performed using an ELISA kit (R&D Systems, Cat #SKGE006B) following the manufacturer's instructions. Absorbance was measured at 450 nm with a correction wavelength of 570 nm in a plate reader (Spectramax2e, Molecular Devices, USA). The reduction of LTB4 production was calculated using the following formula. % reduction of LTB4=[(Normalized Conc. of LTB4 in Induction)−(Normalized Conc. of LTB4 in Test sample)]/(Normalized Conc. of LTB4 in Induction)×100 The results are presented in tables: 3-5.

C-reactive protein (CRP) = assay: Reduction of C-Reactive Protein (CRP) in muscle, exercise-induced DOMS model of rats; format: in vivo, Sprague Dawley rats; conditions: 25 mg/kg for seven days; for Mean CRP conc.: EDL muscle tissue lysate; for % reduction of CRP from normal control: EDL muscle
Method: On day 1 of the study, male Sprague Dawley rats (8-12 weeks) were randomized into seven groups, each group contained seven animals. Basal readings (Paw Withdrawal Threshold) of mechanical hyperalgesia (Electronic von Frey) were obtained. Animals were dosed with either 25 mg/kg of the test items or vehicle (0.5% CMC-Na) for seven days. On day 5, Delayed Onset of Muscle Soreness (DOMS) was induced by introducing the animals to downhill treadmill running task (rate, 15 m/min; time, 5 min; incline, −20° followed by a 1-min rest, repeated 18 times) for 90 min or till exhaustion. Paw Withdrawal Threshold (PWT) was measured at 1 h, 4 h, 24 h (day 6) and 48 h (day 7) post to eccentric exercise and the exploratory behavior measurements were taken at 1 h and 4 h post to DOMS induction. Terminal necropsy was performed after euthanizing the animals under CO2 asphyxiation.
Small pieces of the extensor digitorum longus (EDL) muscles were macerated in liquid nitrogen (LN2) and homogenized in a tissue lysis buffer [50 mM Tris-HCl (pH 7.4), 150 mM NaCl, 5 mM EDTA, 0.5% sodium dodecyl sulfate (SDS), 1% deoxycholate, 0.1% Triton X-100, 1% Nonidet P-40 (NP-40), 0.05% mercaptoethanol, 10 mg/ml PMSF, 0.5 mg/ml leupeptin, 0.2 mg/ml aprotinin, and 1 mM Na3VO4]. The homogenate was centrifuged at 18928 g for 25 min at 4° C., and the supernatant was collected. Protein concentrations of the tissue lysates were determined using BCA protein assay kit (Thermo Fisher, Rockford, IL). C-reactive protein (CRP) concentrations in the muscle tissue lysates were determined using a commercial kit (Rat CRP/C-Reactive Protein ELISA Kit, Sigma, Cat #RAB0097) following the manufacturer's instructions, where the samples were diluted with assay buffer (1:10000) and performed the assay. The amount of CRP present in the tissue lysates was calculated and expressed as nanogram (ng) per milligram of protein. The reduction of CRP concentration in the muscle samples in the treated groups was calculated using the following formula.

[2] = tested on: Prostaglandin E2 (PGE2) production; assay: Assay for Prostaglandin E2 (PGE2) inhibition in LPS-induced peripheral blood mononuclear cells (PBMC); format: cell-based; conditions: LPS 10 ng/mL induction; for % Inhibition of PGE2: human PBMC
Method: Human blood was collected from healthy volunteers from a peripheral vein with a syringe containing EDTA at a final concentration of 2 mM. Plasma was separated by centrifugation at 1000 rpm for 10 minutes, and the residual blood was diluted with RPMI medium supplemented with 10% FBS and 2 mM EDTA in a ratio of 1:3. Thirty milliliters of blood was carefully layered onto the 15 mL of Ficoll/Lymphoprep in a 50 mL falcon tube, and tubes were centrifuged at 350×g for 30 minutes at an acceleration of 9 without using the brake. Buffy coat (interface between medium and Ficoll) containing peripheral blood mononuclear cells (PBMC) was collected carefully in 25 mL of cold 1× phosphate-buffered saline (PBS) and centrifuged at 1200 rpm for 10 minutes. Residual RBCs found in PBMCs pellet were removed by treating with ACK lysis buffer (Gibco Cat #A10492-01) and washed with fresh 1×PBS. PBMC were seeded in a 96-well plate with a density of 0.1×10^6 cells/well and treated with different concentrations of test samples. Cells with 0.2% DMSO served as vehicle control. The plate was incubated in a CO2 incubator at 37° C. for 2 hrs. Finally, cells were induced with LPS (10 ng/mL final concentration) for 4 hours except for vehicle control by keeping the plate at 37° C. in a CO2 incubator. The plate was centrifuged at 1200 rpm for 5 minutes, and 120 μL cell-free supernatants were collected. Quantitation of PGE2 was performed using an ELISA kit (Cayman Chemicals Cat #514010) according to the manufacturer's instructions. Absorbance was measured at 412 nm in a kinetic mode for 30 minutes in a microplate reader (Spectramax2e, Molecular Devices, USA). Percent Inhibition of PGE2 was calculated using the following formula. % Inhibition of PGE2=(Normalized conc. of PGE2 in Induction)−(Normalized conc. of PGE2 in Test sample)/×100 • (Normalized conc. of PGE2 in Induction)
The normalized PGE2 concentration in the LPS induced or the treated wells were obtained from deducting the […].

[3] = Solubility in water of potassium or sodium salts of AKBA; format: physicochemical; conditions: volume of water needed to completely dissolve 1.0 g; room temperature (RT)
Method: as §1

## CC(=O)O[C@@H]1CC[C@@]2(C)[C@@H](CC[C@]3(C)[C@@H]2C(=O)C=C2[C@@H]4[C@@H](C)[C@H](C)CC[C@]4(C)CC[C@]23C)[C@@]1(C)C(=O)O [LN03, 3-O-acetyl-11-keto-β-boswellic acid]
pH of 1% solution
  pH (1% solution): 6.63
[1]; 1.0 μg/mL
  % reduction of LTB4: 16.72%
[1]; 2.5 μg/mL
  % reduction of LTB4: 26.83%
C-reactive protein (CRP)
  Mean CRP conc.: 65.44 ng/mg of protein
  % reduction of CRP from normal control: 40.60%
[2]; 1.0 μg/mL
  % Inhibition of PGE2: 15.02%
[2]; 2.5 μg/mL
  % Inhibition of PGE2: 26.28%
[3]
  Solubility of 1.0 g of product in water: >1000 mL

## CC(=O)O[C@@H]1CC[C@@]2(C)[C@@H](CC[C@]3(C)[C@@H]2C(=O)C=C2[C@@H]4[C@@H](C)[C@H](C)CC[C@]4(C)CC[C@]23C)[C@@]1(C)C(=O)O [LN04, 3-O-acetyl-11-keto-β-boswellic acid]
pH of 1% solution
  pH (1% solution): 6.64
[1]; 1.0 μg/mL
  % reduction of LTB4: 16.03%
[1]; 2.5 μg/mL
  % reduction of LTB4: 28.71%
[2]; Homo sapiens, PBMC, 1.0 μg/mL
  inhibition at 1 µg/mL: 17.2%
[2]; Homo sapiens, PBMC, 2.5 μg/mL
  inhibition at 2.5 µg/mL: 20%
[3]
  Solubility of 1.0 g of product in water: >1000 mL

## [Cl-].[K+] [LN11, potassium chloride]
C-reactive protein (CRP)
  Mean CRP conc.: 78.21 ng/mg of protein
  % reduction of CRP from normal control: 10.23%

## [Cl-].[Na+] [LN12, sodium chloride]
C-reactive protein (CRP)
  Mean CRP conc.: 78.04 ng/mg of protein
  % reduction of CRP from normal control: 10.64%

## potassium salt or complex or chelate of 3-O-acetyl-11-keto-β-boswellic acid [LN05]
pH of 1% solution
  pH (1% solution): 9.24
[1]; 1.0 μg/mL
  % reduction of LTB4: 21.95%
[1]; 2.5 μg/mL
  % reduction of LTB4: 57.57%
[2]; 1.0 μg/mL
  % Inhibition of PGE2: 24.42%
[2]; 2.5 μg/mL
  % Inhibition of PGE2: 42.29%

## potassium salt or complex or chelate of 3-O-acetyl-11-keto-β-boswellic acid [LN07]
pH of 1% solution
  pH (1% solution): 9.21
[1]; 1.0 μg/mL
  % reduction of LTB4: 20.26%
[1]; 2.5 μg/mL
  % reduction of LTB4: 55.85%
C-reactive protein (CRP)
  Mean CRP conc.: 56.97 ng/mg of protein
  % reduction of CRP from normal control: 60.75%
[2]; 1.0 μg/mL
  % Inhibition of PGE2: 26.50%
[2]; 2.5 μg/mL
  % Inhibition of PGE2: 49.08%
[3]
  Solubility of 1.0 g of product in water: 60 mL

## sodium salt of 3-O-acetyl-11-keto-β-boswellic acid [LN06]
pH of 1% solution
  pH (1% solution): 9.27
[1]; 1.0 μg/mL
  % reduction of LTB4: 20.16%
[1]; 2.5 μg/mL
  % reduction of LTB4: 47.97% and 47.87%
[2]; 1.0 μg/mL
  % Inhibition of PGE2: 25.64%
[2]; 2.5 μg/mL
  % Inhibition of PGE2: 41.23%
[3]
  Solubility of 1.0 g of product in water: 80 mL

## sodium salt of 3-O-acetyl-11-keto-β-boswellic acid [LN08]
pH of 1% solution
  pH (1% solution): 8.74
[1]; 1.0 μg/mL
  % reduction of LTB4: 21.66%
[1]; 2.5 μg/mL
  % reduction of LTB4: 46.10%
C-reactive protein (CRP)
  Mean CRP conc.: 58.99 ng/mg of protein
  % reduction of CRP from normal control: 55.94%
[2]; 1.0 μg/mL
  % Inhibition of PGE2: 25.61%
[2]; 2.5 μg/mL
  % Inhibition of PGE2: 47.56%
